How the values were obtained:
[1] = test system: N/R2+ASR2 cells (NIH-3T3, R2 and R2 antisense vectors); assay: Drug sensitivity by relative colony forming efficiency; type: cell-based, mouse
[2] = test system: wild type (W.T.) mouse L cells; assay: as above; type: cell-based
[3] = test system: H2 (H-2) hydroxyurea resistant mouse L cells; assay: as above; type: cell-based
[4] = test system: B3/R2c2 cells (clone of B3/mR2); assay: as above; type: cell-based, mouse
[5] = test system: RP3/SH cells (10T½, H-ras and mutant p53); assay: as above; type: cell-based, mouse
[6] = test system: N/R2-4 cells (NIH-3T3, R2 expression vector); assay: as above; type: cell-based, mouse
[7] = test system: LHF hydroxyurea resistant mouse L cells; assay: as above; type: cell-based
[8] = test system: B3/mR2 cells (BALB/c 3T3, R2 expression vector); assay: as above; type: cell-based, mouse
[9] = test system: B3/SH cells (BALB/c 3T3, empty vector); assay: as above; type: cell-based, mouse
[10] = test system: RP6/ASR2 cells (RP6 with R2 antisense vector); assay: as above; type: cell-based, mouse
[11] = test system: SC2 hydroxyurea resistant mouse L cells; assay: as above; type: cell-based
HeLa S3 cells = assay: Sensitisation to PALA and MTX by antisense, relative colony forming efficiency; type: cell-based, human; conditions: PALA 20 μM, without AS-II-2229B-20
Method: (§1) Drug Selections: Cells ranging in numbers from 500 to 1-2×10^5 were added to 100 mm tissue culture plates in growth medium containing 10% dialyzed fetal bovine serum, and in the absence or presence of drug [Huang et al., 1995a; Choy et al., 1988]. The culture medium was replaced with fresh medium every week for two to three weeks. Surviving cells were visualized by methylene blue staining, and colonies of about 50 cells or more were scored [Huang et al., 1995a]. The relative colony forming efficiency was defined as the ability to produce colonies in the presence of a drug divided by that ability in the absence of drug.
(§2) Colony forming efficiency was determined as previously reported [Huang and Wright, 1994]. The cells were cultured for 24 hours at 37° C. in growth medium with 10% fetal bovine serum. The cells were washed in 5 ml phosphate buffered saline, pH 7.2, once prior to lipofectin+/−oligonucleotide treatment.
(§3) The oligonucleotides being tested were added to cell cultures in the presence of 2.5 μg of DOTMA/DOPE (Lipofectin; Life Technologies, Inc.) for four hours. The oligonucleotide was tested at 0.2 μM unless otherwise indicated. Controls were the cultures treated with lipofectin but without the oligonucleotide. After 4 hours the medium containing the oligonucleotide was removed and washed with 5 ml of growth medium. The cells were then cultured in growth medium containing 10% fetal bovine serum for seven to ten days. Surviving cells were visualized by methylene blue staining, and colonies were scored. In some experiments cell aliquotes were removed from the culture and viability was determined using the trypan blue exclusion test [Phillips, 1973]. Results were analyzed as percent of surviving cells compared to control cells.
(§4) Based on Example 2, treatment of human tumor cells with very low concentrations of short antisense sequences was tested to determine if these constructs could sensitize the tumor cells to inhibitory effects of other chemotherapeutic drugs. […] These observations indicate that antisense compounds targeting the R2 message can act synergistically with well known chemotherapeutic agents.

HeLa 1 mM cells = assay: as above; type: cell-based, human; conditions: without AS-II-2229B-20
Method: as §1, §2, §3, §4

[12] = test system: H4 (H-4) hydroxyurea resistant mouse L cells; assay: Drug sensitivity by relative colony forming efficiency; type: cell-based
[13] = test system: RP3/ASR2 cells (RP3 with R2 antisense vector); assay: as above; type: cell-based, mouse
[14] = test system: RP6/SH cells (10T½, H-ras and mutant p53); assay: as above; type: cell-based, mouse
[15] = test system: N/SH cells (NIH-3T3, empty vector); assay: as above; type: cell-based, mouse

## O=C(O)C[C@H](NC(=O)CP(=O)(O)O)C(=O)O [PALA, N-(phosphonacetyl)-L-aspartate]
[1]; PALA 10 μM
  Relative Colony Forming Efficiencies: 1.81 ± 0.8 × 10^4
[1]; PALA 15 μM
  Relative Colony Forming Efficiencies: 0.58 ± 0.3 × 10^4
[1]; PALA 20 μM
  Relative Colony Forming Efficiencies: 0.04 ± 0.04 × 10^4
[1]; PALA 25 μM
  Relative Colony Forming Efficiencies: 0.04 ± 0.04 × 10^4
[1]; PALA 30 μM
  Relative Colony Forming Efficiencies: 0.12 ± 0.12 × 10^4
[1]; PALA 40 μM
  Relative Colony Forming Efficiencies: 0.04 ± 0.04 × 10^4
[2]; PALA 20 μM
  Relative Colony Forming Efficiencies: 172.3 ± 126.3 × 10^4
[2]; PALA 30 μM
  Relative Colony Forming Efficiencies: 50.3 ± 20.5 × 10^4
[2]; PALA 40 μM
  Relative Colony Forming Efficiencies: 15.0 ± 7.0 × 10^4
[2]; PALA 50 μM
  Relative Colony Forming Efficiencies: 3.6 ± 1.1 × 10^4
[2]; PALA 60 μM
  Relative Colony Forming Efficiencies: 1.3 ± 0.4 × 10^4
[3]; PALA 20 μM
  Relative Colony Forming Efficiencies: 406.7 ± 202.2 × 10^4
[3]; PALA 30 μM
  Relative Colony Forming Efficiencies: 39.4 ± 16.4 × 10^4
[3]; PALA 40 μM
  Relative Colony Forming Efficiencies: 23.3 ± 10.4 × 10^4
[3]; PALA 50 μM
  Relative Colony Forming Efficiencies: 7.9 ± 1.7 × 10^4
[3]; PALA 60 μM
  Relative Colony Forming Efficiencies: 3.6 ± 0.6 × 10^4
[4]; PALA 10 μM
  Relative Colony Forming Efficiencies: 1230.0 ± 97.0 × 10^4
[4]; PALA 20 μM
  Relative Colony Forming Efficiencies: 55.1 ± 15.6 × 10^4
[4]; PALA 40 μM
  Relative Colony Forming Efficiencies: 20.2 ± 6.8 × 10^4
[4]; PALA 50 μM
  Relative Colony Forming Efficiencies: 15.9 ± 4.0 × 10^4
[4]; PALA 60 μM
  Relative Colony Forming Efficiencies: 18.7 ± 5.3 × 10^4
[4]; PALA 80 μM
  Relative Colony Forming Efficiencies: 20.0 ± 4.9 × 10^4
[5]; PALA 10 μM
  Relative Colony Forming Efficiencies: 2569 ± 338 × 10^4
[5]; PALA 20 μM
  Relative Colony Forming Efficiencies: 123.4 ± 19.3 × 10^4
[5]; PALA 30 μM
  Relative Colony Forming Efficiencies: 45.2 ± 7.8 × 10^4
[5]; PALA 40 μM
  Relative Colony Forming Efficiencies: 15.0 ± 4.9 × 10^4
[5]; PALA 50 μM
  Relative Colony Forming Efficiencies: 9.3 ± 3.6 × 10^4
[5]; PALA 60 μM
  Relative Colony Forming Efficiencies: 3.9 ± 1.6 × 10^4
[6]; PALA 10 μM
  Relative Colony Forming Efficiencies: 6.22 ± 3.3 × 10^4
[6]; PALA 15 μM
  Relative Colony Forming Efficiencies: 10.0 ± 5.5 × 10^4
[6]; PALA 20 μM
  Relative Colony Forming Efficiencies: 1.71 ± 1.2 × 10^4
[6]; PALA 25 μM
  Relative Colony Forming Efficiencies: 0.8 ± 0.7 × 10^4
[6]; PALA 30 μM
  Relative Colony Forming Efficiencies: 1.03 ± 0.07 × 10^4
[6]; PALA 40 μM
  Relative Colony Forming Efficiencies: 0.14 ± 0.08 × 10^4
[7]; PALA 20 μM
  Relative Colony Forming Efficiencies: 233.3 ± 3.6 × 10^4
[7]; PALA 30 μM
  Relative Colony Forming Efficiencies: 78.8 ± 7.9 × 10^4
[7]; PALA 40 μM
  Relative Colony Forming Efficiencies: 46.5 ± 9.9 × 10^4
[7]; PALA 50 μM
  Relative Colony Forming Efficiencies: 25.0 ± 6.8 × 10^4
[7]; PALA 60 μM
  Relative Colony Forming Efficiencies: 10.7 ± 3.0 × 10^4
[8]; PALA 10 μM
  Relative Colony Forming Efficiencies: 965.0 ± 529.7 × 10^4
[8]; PALA 20 μM
  Relative Colony Forming Efficiencies: 120.1 ± 28.4 × 10^4
[8]; PALA 40 μM
  Relative Colony Forming Efficiencies: 25.0 ± 4.6 × 10^4
[8]; PALA 50 μM
  Relative Colony Forming Efficiencies: 27.6 ± 8.9 × 10^4
[8]; PALA 60 μM
  Relative Colony Forming Efficiencies: 25.0 ± 6.4 × 10^4
[8]; PALA 80 μM
  Relative Colony Forming Efficiencies: 27.1 ± 6.75 × 10^4
[9]; PALA 10 μM
  Relative Colony Forming Efficiencies: 17.9 ± 11.0 × 10^4
[9]; PALA 20 μM
  Relative Colony Forming Efficiencies: 0.39 ± 0.18 × 10^4
[9]; PALA 40 μM
  Relative Colony Forming Efficiencies: 0.35 ± 0.01 × 10^4
[9]; PALA 50 μM
  Relative Colony Forming Efficiencies: 0.24 ± 0.14 × 10^4
[9]; PALA 60 μM
  Relative Colony Forming Efficiencies: 0.12 ± 0.05 × 10^4
[9]; PALA 80 μM
  Relative Colony Forming Efficiencies: 0.17 ± 0.08 × 10^4
[10]; PALA 10 μM
  Relative Colony Forming Efficiencies: 2083 ± 960 × 10^4
[10]; PALA 20 μM
  Relative Colony Forming Efficiencies: 368 ± 154 × 10^4
[10]; PALA 30 μM
  Relative Colony Forming Efficiencies: 316 ± 171 × 10^4
[10]; PALA 40 μM
  Relative Colony Forming Efficiencies: 116 ± 54 × 10^4
[10]; PALA 50 μM
  Relative Colony Forming Efficiencies: 41.7 ± 23 × 10^4
[10]; PALA 60 μM
  Relative Colony Forming Efficiencies: 13.2 ± 6.3 × 10^4
[11]; PALA 20 μM
  Relative Colony Forming Efficiencies: 850.1 ± 325.2 × 10^4
[11]; PALA 30 μM
  Relative Colony Forming Efficiencies: 187.6 ± 46.4 × 10^4
[11]; PALA 40 μM
  Relative Colony Forming Efficiencies: 37.5 ± 8.7 × 10^4
[11]; PALA 50 μM
  Relative Colony Forming Efficiencies: 47.5 ± 35.8 × 10^4
[11]; PALA 60 μM
  Relative Colony Forming Efficiencies: 17.6 ± 1.2 × 10^4
HeLa S3 cells
  Relative colony Forming Efficiency: 350 ± 50
HeLa 1 mM cells; PALA 20 μM
  Relative colony Forming Efficiency: 377 ± 21
HeLa 1 mM cells; PALA 30 μM
  Relative colony Forming Efficiency: 311 ± 9.5
[12]; PALA 20 μM
  Relative Colony Forming Efficiencies: 322.5 ± 36.4 × 10^4
[12]; PALA 30 μM
  Relative Colony Forming Efficiencies: 84.0 ± 30.0 × 10^4
[12]; PALA 40 μM
  Relative Colony Forming Efficiencies: 43.3 ± 9.6 × 10^4
[12]; PALA 50 μM
  Relative Colony Forming Efficiencies: 23.2 ± 0.5 × 10^4
[12]; PALA 60 μM
  Relative Colony Forming Efficiencies: 11.1 ± 1.4 × 10^4
[13]; PALA 10 μM
  Relative Colony Forming Efficiencies: 1183 ± 384 × 10^4
[13]; PALA 20 μM
  Relative Colony Forming Efficiencies: 86.1 ± 32.9 × 10^4
[13]; PALA 30 μM
  Relative Colony Forming Efficiencies: 19.5 ± 4.7 × 10^4
[13]; PALA 40 μM
  Relative Colony Forming Efficiencies: 4.7 ± 0.6 × 10^4
[13]; PALA 50 μM
  Relative Colony Forming Efficiencies: 2.1 ± 0.8 × 10^4
[13]; PALA 60 μM
  Relative Colony Forming Efficiencies: 0.3 ± 0.2 × 10^4
[14]; PALA 10 μM
  Relative Colony Forming Efficiencies: 4619 ± 648 × 10^4
[14]; PALA 20 μM
  Relative Colony Forming Efficiencies: 1220 ± 255 × 10^4
[14]; PALA 30 μM
  Relative Colony Forming Efficiencies: 450 ± 129 × 10^4
[14]; PALA 40 μM
  Relative Colony Forming Efficiencies: 271 ± 68 × 10^4
[14]; PALA 50 μM
  Relative Colony Forming Efficiencies: 109 ± 23 × 10^4
[14]; PALA 60 μM
  Relative Colony Forming Efficiencies: 55.5 ± 13 × 10^4
[15]; PALA 10 μM
  Relative Colony Forming Efficiencies: 5.28 ± 1.5 × 10^4
[15]; PALA 15 μM
  Relative Colony Forming Efficiencies: 5.83 ± 2.7 × 10^4
[15]; PALA 20 μM
  Relative Colony Forming Efficiencies: 0.30 ± 0.1 × 10^4
[15]; PALA 25 μM
  Relative Colony Forming Efficiencies: 0.53 ± 0.3 × 10^4
[15]; PALA 30 μM
  Relative Colony Forming Efficiencies: 0.48 ± 0.08 × 10^4
[15]; PALA 40 μM
  Relative Colony Forming Efficiencies: 0.27 ± 0.2 × 10^4
